For this experiment, the target named is Prothrombin (Homo sapiens, UniProt P00734). Put plainly: Inhibition of thrombin.
The term IC50 denotes the concentration at which inhibition is half-maximal. High values mean a need for much substance, low ones inhibition by little substance. `NC1CCC(OC(=O)c2cc3cc(CCl)ccc3oc2=O)CC1` (stereo not drawn): the concentration for half-maximal inhibition (IC50) is > 300 µM. Then `O=C(Oc1cncc(Cl)c1)c1cc2cc(CCl)ccc2oc1=O`, with > 300 µM. In turn, `N=C(N)NCCOC(=O)c1cc2cc(CCl)ccc2oc1=O` returned a concentration for half-maximal inhibition (IC50) of 107 µM. With `NCCOC(=O)c1cc2cc(CCl)ccc2oc1=O` the figure was 284 µM. Then `N=C(N)Nc1ccc(OC(=O)c2cc3cc(CCl)ccc3oc2=O)cc1`, with 151 µM; and `NC(N)=NCCCOC(=O)c1cc2cc(CCl)ccc2oc1=O`, with > 300 µM; and `Nc1cccc(OC(=O)c2cc3cc(CCl)ccc3oc2=O)c1`, with 1.98 µM. Turning to `O=C(OC1CCNCC1)c1cc2cc(CCl)ccc2oc1=O`, the IC50 was > 300 µM. For the molecule `O=C(Oc1cccc(Cl)n1)c1cc2cc(CCl)ccc2oc1=O`, half-maximal inhibition (IC50) required 0.87 µM. Then `Nc1ccc(OC(=O)c2cc3cc(CCl)ccc3oc2=O)cc1`, with 48 µM; and `NCCCOC(=O)c1cc2cc(CCl)ccc2oc1=O`, with > 300 µM. As for `N=C(N)Nc1cccc(OC(=O)c2cc3cc(CCl)ccc3oc2=O)c1`, the IC50 is > 300 µM. Then `Cc1cccc(OC(=O)c2cc3cc(CCl)ccc3oc2=O)n1`, with 1.39 µM.

The values above are taken from ChEMBL document CHEMBL1146107, “Investigation of mechanism-based thrombin inhibitors: Implications of a highly conserved water molecule for the binding of coumarins within the S pocket” (Bioorg Med Chem Lett, 2006).
